This note sets out measurements from patent US10912297B2, “Phenoxyhalogenphenylamidines and the use thereof as fungicides” (priority 2015, dated 2021).

For one data set, the system named is soy bean plants. Kind of data set: Plant compatibility test using soy bean plants. The data set is classed as in vivo. The following applies: soy bean young plants sprayed at 500 ppm, evaluated 6 days after application; 0% no damages, 100% totally damaged. The protocol:
[table] To produce a suitable preparation of active compound, 1 part by weight of active compound is mixed with the stated amounts of solvent and emulsifier, and the concentrate is diluted with water to the desired concentration. Young plants are sprayed with the preparation of active compound at the stated application rate. The plants are then placed in a greenhouse at approximately 21° C. and a relative atmospheric humidity of approximately 80%. The test is evaluated 6 days after application and comprises plant damages like leaf deformation, chlorosis, necrosis, shoot damage or stunting. 0% means no damages are observed, while 100% means that the plants are totally damaged.

Data set [1] is described as follows: Log P by HPLC on reversed phase columns (EEC directive 79/831 Annex V.A8). It counts as physicochemical. Particulars: reversed phase HPLC column, LC-UV. The protocol: Measurement of Log P values was performed according to EEC directive 79/831 Annex V.A8 by HPLC (High Performance Liquid Chromatography) on reversed phase columns with the following methods: • ^[a] Log P value is determined by measurement of LC-UV, in an acidic range, with 0.1% formic acid in water and acetonitrile as eluent (linear gradient from 10% acetonitrile to 95% acetonitrile). • ^[b] Log P value is determined by measurement of LC-UV, in a neutral range, with 0.001 molar ammonium acetate solution in water and acetonitrile as eluent (linear gradient from 10% acetonitrile to 95% acetonitrile). […] Lambda-max-values were determined using UV-spectra from 200 nm to 400 nm and the peak values of the chromatographic signals.

Data set [2] is described as follows: Hydrolysis stability test in homogeneous aqueous solution. It counts as physicochemical. Particulars: 50° C., 24 hours, first order degradation assumed. As to the method:
To produce a suitable preparation of active compound for the hydrolysis stability test, a 1000 ppm stock solution (1 mg/mL) of active compound in acetonitrile is prepared. Three aliquots of […] are pipetted into HPLC vials and diluted with 750 μL acetonitrile. In each vial 850 μL of the appropriate buffer solution (pH4, pH7 and pH9, CertiPUR, Fa. Merck) is added. The buffer containing HPLC vials are incubated in a heated sample tray at 50° C. for 24 hours. The amount A of the active compound is analyzed by HPLC (UV-peak areas at 210 nm) at eight points in time t: 0 min, 140 min, 350 min, 560 min, 770 min, 980 min, 1190 min, 1400 min. The half-life time (T1/2) of each active compound is calculated via linear regression by using the following equations (first order degradation assumed): [formula] [formula]

Data set [3] is described as follows: Photolysis stability test. The data set is classed as physicochemical. The following applies: dried film in MTP, irradiated at 30° C. and 480 W/m^2 (SUNTEST), first order degradation assumed. The protocol: The stability towards photolysis of the phenylamidines described in the prior art is good but an improved stability towards photolysis may be an advantage as it could offer a longer lasting efficacy when applied to plants by foliar application. The improved stability towards photolysis was proven by a […] stability test as described below: To produce a suitable preparation of active compound for the photolysis stability test, a 1000 ppm stock solution (1 mg/mL) of active compound in acetonitrile is prepared. Aliquots of […] of this stock solution are pipetted in three wells of a Bio-one microtiter plate (MTP) UVStar 96 (Fa. Greiner, Art. No. 655801). The MTP is dried overnight in the dark and then irradiated at 30° C. and 480 W/m^2 with a UV irradiation device SUNTEST XLS+ or SUNTEST CPS (Fa. Atlas). The amount A of the active compound is analyzed by HPLC (UV-peak areas at 210 nm) at five points in time t: 0 h, 2 h, 4 h, 6 h, 24 h by using the following method: 200 μL acetonitrile is added in the respective well of the MTP and the MTP is sealed with a Bio-one sealing foil, viewseal 80/140 mm (Fa. Greiner, Art. No. 676070). The MTPs are sonicated for 3 minutes and analysed by HPLC. The half-life time (T1/2) of each active compound is calculated via linear regression by using the following equations (first order degradation assumed): […]

Where [4] appears, read: acidic range, 0.1% formic acid in water and acetonitrile as eluent, read-out: LogP [a].
Setting [5] is: neutral range, 0.001 molar ammonium acetate solution in water and acetonitrile as eluent, read-out: LogP [b].

Where two headings read alike, the source gives them in different places. Some results are limits rather than exact numbers.

Molecule `CCN(C)/C=N/c1cc(C)c(Oc2ccccc2)cc1C` [Compound no. 1 known from WO2008/110313, reference compound] gave a Necrosis in % in the data set on soy bean plants of 90%.

With `CCN(C)/C=N/c1cc(C)c(Oc2ccccc2)cc1Cl` [Example I-01, N′-(2-chloro-5-methyl-4-phenoxyphenyl)-N-ethyl-N-methylimidoformamide], the chromatographic logP in data set [1] (setting [4]) came out at 1.6. Further, the half-life at 59 µg/mL in data set [2] (buffer pH 7/acetonitrile, read-out: T1/2 (pH 7) (converted)) is 45 h; in data set [2] (buffer pH 9/acetonitrile, read-out: T1/2 (pH 9) (converted)), 40 h. In data set [3], this molecule came in with a half-life above 200 h. In addition, in the data set on soy bean plants, the Necrosis in % is on record as 50%.

Take `CCN(C)/C=N/c1cc(C)c(Oc2ccccc2)cc1Br` [Example I-02, N′-(2-bromo-5-methyl-4-phenoxyphenyl)-N-ethyl-N-methylimidoformamide]: the chromatographic logP turned out to be 1.61 in data set [1] (setting [4]) and 4.67 in data set [1] (setting [5]). The Necrosis in % in the data set with soy bean plants is recorded as 10%.

For `CCN(C)C=Nc1cc(C)c(Oc2ccccc2)cc1F` [Example I-03, N-ethyl-N′-(2-fluoro-5-methyl-4-phenoxyphenyl)-N-methylimidoformamide], the values for the chromatographic logP in data set [1] (setting [4]) and in data set [1] (setting [5]) were 1.55 and 3.97, respectively.

As to `Cc1cc([N+](=O)[O-])c(Br)cc1Oc1ccccc1` [VI-02, 1-bromo-4-methyl-2-nitro-5-phenoxybenzene], the chromatographic logP in data set [1] (setting [4]) turned out to be 4.51.

With `Cc1cc(N)c(Br)cc1Oc1ccccc1` [VIII-02, 2-bromo-5-methyl-4-phenoxyaniline], the chromatographic logP in data set [1] (setting [4]) stood at 3.66; in data set [1] (setting [5]), 3.65.
